# Laboratory results published in patent US7220720B2, “Melanin-concentrating hormone analogs” (Merk & Co., Inc., priority 2000, dated 2007).
# Where a SMILES comes first, the peptide text is derived from it. Bridges are numbered along the chain shown (N, C = ends).
# Experiments:
# human MCH receptor [1] = molecular target: T1, human MCH receptor (Homo sapiens, UniProt Q99705); assay: Aequorin bioluminescence functional assay in 293-AEQ17 cells transfected with human MCH receptor; assay type: cell-based; set-up: expressed in transfected cells; host or cells: 293-AEQ17 (aequorin-expressing HEK-293 reporter line), transient lipofectamine transfection, pcDNA-3 vector; Activity Activation %: concentration or dose not given beside the values; settings: for % Activation at 10 μM: Table 1, aequorin functional assay
# T1 sequence (Q99705 whole entry): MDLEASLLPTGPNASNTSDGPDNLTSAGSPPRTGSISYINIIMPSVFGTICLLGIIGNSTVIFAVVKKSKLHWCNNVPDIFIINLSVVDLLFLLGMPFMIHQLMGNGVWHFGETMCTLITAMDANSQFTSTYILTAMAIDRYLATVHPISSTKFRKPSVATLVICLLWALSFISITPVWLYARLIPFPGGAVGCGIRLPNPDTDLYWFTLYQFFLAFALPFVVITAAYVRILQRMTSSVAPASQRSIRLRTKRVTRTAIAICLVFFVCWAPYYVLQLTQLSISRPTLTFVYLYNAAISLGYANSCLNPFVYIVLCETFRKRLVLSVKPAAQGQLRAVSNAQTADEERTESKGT
# Protocol: The aequorin bioluminescence assay is a reliable test for measuring the activity of G protein-coupled receptors that couple through the Gα protein subunit family consisting of Gq and Gll and leads to the activation of phospholipase C, mobilization of intracellular calcium and activation of protein kinase C.
# Following approximately 40 hours of expression the apo-aequorin in the cells was charged for 4 hours with coelenterazine (10 μM) under reducing conditions (300 μM reduced glutathione) in ECB buffer (140 mM NaCl, 20 mM KCl, 20 mM HEPES-NaOH [pH=7.4], 5 mM glucose, 1 mM MgCl2, 1 mM CaCl2, 0.1 mg/ml bovine serum albumin).
# The cells were harvested, washed once in ECB medium and resuspended to 500,000 cells/ml. 100 μl of cell suspension (corresponding to 5×10^4 cells) was then injected into the test plate containing MCH or MCH analogs, and the integrated light emission was recorded over 30 seconds, in 0.5 second units. 20 μL of lysis buffer (0.1% final Triton X-100 concentration) was then injected and the integrated light emission recorded over 10 seconds, in 0.5 second units. The “fractional response” values for each well were calculated by taking the ratio of the integrated response to the initial challenge to the total integrated luminescence including the Triton X-100 lysis response.
# human MCH receptor [2] = molecular target: T1, human MCH receptor; assay: Radiolabeled MCH-R binding assay: inhibition of [125I]-human MCH (Phe13, Tyr19 substituted) binding to cell membranes (filter or SPA format); set-up: expressed in transfected cells; settings: Table 1; SPA based assay; read-out: Binding Assay IC50
# Protocol: Cell membranes were prepared on ice. Each T-75 flask was rinsed twice with 10 ml of Enzyme-free Cell Dissociation Buffer (Specialty Media, Lavallette, N.J.), and the cell monolayer was detached in an additional 10 ml of Enzyme-free Cell Dissociation Buffer by incubation at room temperature for 10 minutes. Dissociated cells were centrifuged (500×g for 10 minutes at 4° C.), resuspended in 5 ml homogenization buffer (10 mM Tris-HCl, pH 7.4, 0.01 mM Pefabloc, 10 μM phosphoramidon, 40 μg/ml bacitracin) and then homogenized using a glass homogenizer (10–15 strokes). The homogenate was centrifuged for 10 minutes (1,000×g at 4° C.). The resulting supernatant was then centrifuged at 38,700×g for 15 minutes at 4° C. Pelleted membranes were resuspended (passed through 25 gauge needle 5 times), snap-frozen on liquid nitrogen, and stored at −80° C. until use.
# Binding was performed in a 96-well filter assay or Scintillation Proximity Assay (SPA)-based format using cell membranes from a stable CHO or HEK-293 cell line expressing the MCH receptor. For the filter assay, reactions were performed at 20° C. for 1 hour in a total volume of 0.2 ml containing: 0.05 ml of membrane suspension (˜3 μg protein), 0.02 ml of [^125I]-human MCH (Phe^13, Tyr^19 substituted; 30 pM), 0.01 ml of competitor and 0.12 ml of binding buffer (50 mM Tris-HCl, pH 7.4, 10 mM MgCl2, 2 mM EDTA, 200 μg/ml bacitracin, 1 μM phosphoramidon).
# Bound radioligand was separated by rapid vacuum filtration (Packard Filtermate 96-well cell harvester) through GF/C filters pretreated for 1 hour with 1% polyethylenimine. After application of the membrane suspension to the filter, the filters were washed 3 times with 3 ml each of ice-cold 50 mM Tris-HCl, pH 7.4, 10 mM MgCl2, 2 mM EDTA, 0.04% Tween 20 and the bound radioactivity on the filters was quantitated by scintillation counting (TopCount device).
# For the SPA-based assay, WGA-PVT beads (NEN Life Sciences Products) were resuspended in Dulbecco's PBS with calcium and magnesium (500 mg beads in 4 ml PBS). For each 96-well assay plate, 0.18 ml of beads was pre-coated with MCH receptor by mixing with 0.2 ml MCH receptor CHO cell membranes (˜0.2–4 mg protein) and 1.5 ml SPA assay buffer (50 mM Tris-HCl, pH 7.4, 10 mM MgCl2, 2 mM EDTA, 0.1% BSA, 12% glycerol). The suspension was mixed gently for 20 minutes, 12.3 ml of assay buffer and protease inhibitors were added (final concentration given): 2 μg/ml leupeptin, 10 μM phosphoramidon, 40 μg/ml bacitracin, 5 μg/ml aprotinin, 0.1 mM Pefabloc.
# Coated beads were kept on ice until use. For each well, 0.145 ml of beads were added to Optiplate assay plates (Packard 6005190), followed by 0.002–0.004 ml of competitor and 0.05 ml of [^125I]-human MCH (Phe^13, Tyr^19 substituted; 30 pM). Binding reactions were allowed to proceed at room temperature for 3 hours. Quantitation was performed by scintillation counting (TopCount device).
# [3] = Table 4, position 6 modification
# [4] = Table 5, position 10 modification
# [5] = Table 6, position 13 modification
Activity Activation % (human MCH receptor [1]; [3]),Activity Activation % (human MCH receptor [1]; [4]),Structure (SMILES),other results
96%,,CSCC[C@@H]1NC(=O)[C@@H](NC(=O)[C@H](CC(N)=O)NC(C)=O)CSSC[C@@H](C(N)=O)NC(=O)[C@@H]2CCCN2C(=O)[C@H](CCCNC(=N)N)NC(=O)[C@H](Cc2ccc(O)cc2)NC(=O)[C@H](C(C)C)NC(=O)[C@H](CCCNC(=N)N)NC(=O)CNC(=O)[C@H](CC(C)C)NC1=O [compound 34],
,104%,CSCC[C@@H]1NC(=O)[C@@H](NC(=O)[C@H](CCCNC(=N)N)NC(C)=O)CSSC[C@@H](C(N)=O)NC(=O)[C@@H]2CCCN2C(=O)[C@H](CCCNC(=N)N)NC(=O)[C@H](Cc2ccc(O)cc2)NC(=O)[C@H](C(C)C)NC(=O)[C@H](CCCNC(=N)N)NC(=O)[C@H](CO)NC(=O)[C@H](CC(C)C)NC1=O [compound 52] (Ac-RCMLSRVYRPC-NH2; disulfide 2-11 (inferred)),
120%,,CSCC[C@@H]1NC(=O)[C@@H](NC(=O)[C@H](CO)NC(C)=O)CSSC[C@@H](C(N)=O)NC(=O)[C@@H]2CCCN2C(=O)[C@H](CCCNC(=N)N)NC(=O)[C@H](Cc2ccc(O)cc2)NC(=O)[C@H](C(C)C)NC(=O)[C@H](CCCNC(=N)N)NC(=O)CNC(=O)[C@H](CC(C)C)NC1=O [compound 35],
113%,,CSCC[C@@H]1NC(=O)[C@@H](NC(=O)[C@H](CCC(=O)O)NC(C)=O)CSSC[C@@H](C(N)=O)NC(=O)[C@@H]2CCCN2C(=O)[C@H](CCCNC(=N)N)NC(=O)[C@H](Cc2ccc(O)cc2)NC(=O)[C@H](C(C)C)NC(=O)[C@H](CCCNC(=N)N)NC(=O)CNC(=O)[C@H](CC(C)C)NC1=O [compound 36],
,106%,CSCC[C@@H]1NC(=O)[C@@H](NC(=O)[C@H](CCCNC(=N)N)NC(C)=O)CSSC[C@@H](C(N)=O)NC(=O)[C@@H]2CCCN2C(=O)[C@H](CCCNC(=N)N)NC(=O)[C@H](Cc2ccc(O)cc2)NC(=O)[C@H](C(C)C)NC(=O)[C@H](CCCNC(=N)N)NC(=O)[C@H](CC(C)C)NC(=O)[C@H](CC(C)C)NC1=O [compound 48],
,106%,CSCC[C@@H]1NC(=O)[C@@H](NC(=O)[C@H](CCCNC(=N)N)NC(C)=O)CSSC[C@@H](C(N)=O)NC(=O)[C@@H]2CCCN2C(=O)[C@H](CCCNC(=N)N)NC(=O)[C@H](Cc2ccc(O)cc2)NC(=O)[C@H](C(C)C)NC(=O)[C@H](CCCNC(=N)N)NC(=O)[C@H](CC(N)=O)NC(=O)[C@H](CC(C)C)NC1=O [compound 51] (Ac-RCMLNRVYRPC-NH2; disulfide 2-11),EC50 (human MCH receptor [1]; [4]): 23 nM
,104%,CSCC[C@@H]1NC(=O)[C@@H](NC(=O)[C@H](CCCNC(=N)N)NC(C)=O)CSSC[C@@H](C(N)=O)NC(=O)[C@@H]2CCCN2C(=O)[C@H](CCCNC(=N)N)NC(=O)[C@H](Cc2ccc(O)cc2)NC(=O)[C@H](C(C)C)NC(=O)[C@H](CCCNC(=N)N)NC(=O)[C@H](C)NC(=O)[C@H](CC(C)C)NC1=O [compound 47] (Ac-RCMLARVYRPC-NH2; disulfide 2-11),
106%,,CSCC[C@@H]1NC(=O)[C@@H](NC(=O)[C@@H](N)CCCNC(=N)N)CSSC[C@@H](C(N)=O)NC(=O)[C@@H]2CCCN2C(=O)[C@H](CCCNC(=N)N)NC(=O)[C@H](Cc2ccc(O)cc2)NC(=O)[C@H](C(C)C)NC(=O)[C@H](CCCNC(=N)N)NC(=O)CNC(=O)[C@H](CC(C)C)NC1=O [compound 39],

# Continued, molecule first:
Structure (SMILES),Activity Activation % (human MCH receptor [1]; [3]),Activity Activation % (human MCH receptor [1]; [4]),other results
CSCC[C@@H]1NC(=O)[C@@H](NC(C)=O)CSSC[C@@H](C(N)=O)NC(=O)[C@@H]2CCCN2C(=O)[C@H](CCCNC(=N)N)NC(=O)[C@H](Cc2ccc(O)cc2)NC(=O)[C@H](C(C)C)NC(=O)[C@H](CCCNC(=N)N)NC(=O)CNC(=O)[C@H](CC(C)C)NC1=O [compound 9],,,IC50 (human MCH receptor [2]): 1.6 nM; % Activation at 10 μM (human MCH receptor [1]): 74%
CSCC[C@@H]1NC(=O)[C@@H](NC(=O)[C@@H]2CCCN2C(C)=O)CSSC[C@@H](C(N)=O)NC(=O)[C@@H]2CCCN2C(=O)[C@H](CCCNC(=N)N)NC(=O)[C@H](Cc2ccc(O)cc2)NC(=O)[C@H](C(C)C)NC(=O)[C@H](CCCNC(=N)N)NC(=O)CNC(=O)[C@H](CC(C)C)NC1=O [compound 33],133%,,
CSCC[C@@H]1NC(=O)[C@@H](NC(=O)[C@H](CCCNC(=N)N)NC(C)=O)CSSC[C@@H](C(N)=O)NC(=O)[C@@H]2CCCN2C(=O)[C@H](CCCNC(=N)N)NC(=O)[C@H](Cc2ccccc2)NC(=O)[C@H](C(C)C)NC(=O)[C@H](CCCNC(=N)N)NC(=O)CNC(=O)[C@H](CC(C)C)NC1=O [compound 62],,,Activity Activation % (human MCH receptor [1]; [5]): 96%
CSCC[C@@H]1NC(=O)[C@@H](NC(C)=O)CSSC[C@@H](C(N)=O)NC(=O)[C@@H]2CCCN2C(=O)[C@H](CCCNC(=N)N)NC(=O)[C@H](Cc2ccc(O)cc2)NC(=O)[C@H](C(C)C)NC(=O)[C@H](CCCNC(=N)N)NC(=O)CNC(=O)[C@H](CC(C)C)NC1=O [compound 38],82%,,
CSCC[C@@H]1NC(=O)[C@@H](NC(=O)[C@H](CCCNC(=N)N)NC(=O)[C@H](CC(C)C)NC(=O)[C@H](CCSC)NC(=O)[C@H](CC(=O)O)NC(=O)[C@H](Cc2ccccc2)NC(=O)[C@@H](N)CC(=O)O)CSSC[C@@H](C(=O)N[C@@H](Cc2c[nH]c3ccccc23)C(=O)N[C@@H](CCC(N)=O)C(=O)N[C@H](C(=O)O)C(C)C)NC(=O)[C@@H]2CCCN2C(=O)[C@H](CCCNC(=N)N)NC(=O)[C@H](Cc2ccc(O)cc2)NC(=O)[C@H](C(C)C)NC(=O)[C@H](CCCNC(=N)N)NC(=O)CNC(=O)[C@H](CC(C)C)NC1=O [compound 11],100%,100%,"% Activation at 10 μM (human MCH receptor [1]): 100%; Activity Activation % (human MCH receptor [1]; Table 2, D-amino acid analogs): 100%; Activity Activation % (human MCH receptor [1]; Table 3, N-methyl-amino acid analogs): 100%; Activity Activation % (human MCH receptor [1]; [5]): 100%; Activity Activation % (human MCH receptor [1]; Table 7, combinations and position 8): 100%"
CSCC[C@@H]1NC(=O)[C@@H](N)CSSC[C@@H](C(N)=O)NC(=O)[C@@H]2CCCN2C(=O)[C@H](CCCNC(=N)N)NC(=O)[C@H](Cc2ccc(O)cc2)NC(=O)[C@H](C(C)C)NC(=O)[C@H](CCCNC(=N)N)NC(=O)CNC(=O)[C@H](CC(C)C)NC1=O [compound 37],120%,,
CSCC[C@@H]1NC(=O)[C@@H](NC(=O)[C@H](C)NC(C)=O)CSSC[C@@H](C(N)=O)NC(=O)[C@@H]2CCCN2C(=O)[C@H](CCCNC(=N)N)NC(=O)[C@H](Cc2ccc(O)cc2)NC(=O)[C@H](C(C)C)NC(=O)[C@H](CCCNC(=N)N)NC(=O)CNC(=O)[C@H](CC(C)C)NC1=O [compound 31] (Ac-ACMLGRVYRPC-NH2; disulfide 2-11 (inferred)),135%,,
